According to patent publication US5602168A, “1-(N'-(arylalkylaminoalkyl)) aminoisoindoles; dopamine receptor subtype specific ligands” (Neurogen Corporation, priority 1995, dated 1997):
Like-named read-outs stand apart in the source and are kept apart here.

Tests used:
[1] = molecular target: T1, human dopamine D4 receptor (Homo sapiens, UniProt P21917); test: D4 receptor binding activity ([3H]YM-09151-2 displacement); conditions: human D4 clonal cell lines; 0.1 nM [3H]YM-09151-2; 60 minutes at 25° C.; pH 7.4
T1 construct: expressed in transfected cells
T1 sequence (P21917 1-419): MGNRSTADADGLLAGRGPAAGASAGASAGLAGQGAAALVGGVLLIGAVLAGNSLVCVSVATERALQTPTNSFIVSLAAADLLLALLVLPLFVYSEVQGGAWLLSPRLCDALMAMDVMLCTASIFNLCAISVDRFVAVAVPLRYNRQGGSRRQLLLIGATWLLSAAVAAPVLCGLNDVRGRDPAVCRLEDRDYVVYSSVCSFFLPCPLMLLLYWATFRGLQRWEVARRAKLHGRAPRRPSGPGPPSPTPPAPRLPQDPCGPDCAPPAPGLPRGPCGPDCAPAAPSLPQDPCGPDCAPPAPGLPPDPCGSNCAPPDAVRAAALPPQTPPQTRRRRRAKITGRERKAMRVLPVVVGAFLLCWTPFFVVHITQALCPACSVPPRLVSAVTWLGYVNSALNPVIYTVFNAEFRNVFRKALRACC
Procedure: Clonal cell lines expressing the human dopamine D4 receptor subtype were harvested in PBS and the cells centrifuged and the pellets stored at -80° C. until used in the binding assay. The pellets were resuspended and the cells lysed at 4° C. in 50 mM Tris pH 7.4 buffer containing 120 mM NaCl, 1 mM EDTA and 5 mM MgCl2. The homogenate is centrifuged at 48000×g for 10 minutes at 4° C. The resulting pellet is resuspended in fresh buffer and centrifuged again. After resuspension of the pellet in fresh buffer a […] aliquot is removed for protein determination. The remaining homogenate is centrifuged as above, the supernatant removed and the pellet stored at 4° C. until needed at which time it is resuspended to a final concentration of […] with 50 mM Tris buffer (pH 7.4) and 120 mM NaCl just prior to use. Incubations were carried out for 60 minutes at 25° C. in the presence of 0.1 nM [^3 H]YM-09151-2. The incubation was terminated by rapid filtration through Whatman GF/C filters and rinsed with 2×4 ml washes of chilled 50 mM Tris (pH 7.4) and 120 mM NaCl. Non-specific binding was determined with 1 mM spiperone and radioactivity determined by counting in an LKB beta counter. Binding parameters were determined by non-linear least squares regression analysis, from which the inhibition constant Ki could be calculated for each test compound. The binding characteristics of some examples of this invention are shown in Table 3 for the dopamine D4 binding assay.

D3 receptor = molecular target: T2, D3 receptor (Chlorocebus aethiops, UniProt P52703); test: D3 receptor binding activity ([3H]-YM 09151-2 displacement); set-up: species or system African Green monkey; conditions: COS cell pellets with recombinant D3; 0.5 nM 3H-YM 09151-2; nonspecific 1 mM spiperone
T2 construct: expressed in transfected cells; host or cells: COS cells (membrane homogenate)
Procedure: (§1) Pellets of COS cells containing recombinantly produced D2 or D3 receptors from African Green monkey were used for the assays. The sample is homogenized in 100 volumes (w/vol) of 0.05M Tris HCl buffer at 4° C. and pH 7.4. The sample is then centrifuged at 30,000×g and resuspended and rehomogenized. The sample is then centrifuged as described and the final tissue sample is frozen until use. The tissue is resuspended 1:20 (wt/vol) in 0.05M Tris HCl buffer containing 100 mM NaCl.
(§2) Incubations are carried out at […] and contain 0.4 ml of tissue sample, 0.5 nM ^3 H-YM 09151-2 and the compound of interest in a total incubation of 1.0 ml. Nonspecific binding is defined as that binding found in the presence of 1 mM spiperone; without further additions, nonspecific binding is less than 20% of total binding. The binding characteristics of examples of this patent for the D2 and D3 receptor subtypes are shown in Table 2 for Rat Striatal Homogenates.

D2 receptor = D2 receptor (Chlorocebus aethiops, UniProt P52702); test: D2 receptor binding activity ([3H]-YM 09151-2 displacement); set-up: species or system African Green monkey; conditions: COS cell pellets with recombinant D2; 0.5 nM 3H-YM 09151-2; nonspecific 1 mM spiperone
Procedure: as §1, §2

[2] = cited from earlier work
D2 receptors = conditions: background statement; cited from earlier work
D1 dopamine receptor = conditions: background statement; cited from earlier work

Sequence of D2 receptor (P52702 whole entry): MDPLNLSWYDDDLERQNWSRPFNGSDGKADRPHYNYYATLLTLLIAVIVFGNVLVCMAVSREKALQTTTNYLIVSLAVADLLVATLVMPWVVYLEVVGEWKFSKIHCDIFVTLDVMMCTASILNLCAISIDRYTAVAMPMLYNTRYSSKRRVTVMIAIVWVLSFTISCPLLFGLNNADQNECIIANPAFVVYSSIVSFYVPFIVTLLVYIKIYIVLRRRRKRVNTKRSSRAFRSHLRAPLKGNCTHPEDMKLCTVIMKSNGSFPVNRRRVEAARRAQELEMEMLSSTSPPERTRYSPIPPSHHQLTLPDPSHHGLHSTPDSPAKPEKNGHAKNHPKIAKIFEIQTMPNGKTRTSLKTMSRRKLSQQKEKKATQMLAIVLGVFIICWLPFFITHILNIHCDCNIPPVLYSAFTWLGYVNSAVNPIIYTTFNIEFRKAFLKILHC
T2 sequence (P52703 whole entry): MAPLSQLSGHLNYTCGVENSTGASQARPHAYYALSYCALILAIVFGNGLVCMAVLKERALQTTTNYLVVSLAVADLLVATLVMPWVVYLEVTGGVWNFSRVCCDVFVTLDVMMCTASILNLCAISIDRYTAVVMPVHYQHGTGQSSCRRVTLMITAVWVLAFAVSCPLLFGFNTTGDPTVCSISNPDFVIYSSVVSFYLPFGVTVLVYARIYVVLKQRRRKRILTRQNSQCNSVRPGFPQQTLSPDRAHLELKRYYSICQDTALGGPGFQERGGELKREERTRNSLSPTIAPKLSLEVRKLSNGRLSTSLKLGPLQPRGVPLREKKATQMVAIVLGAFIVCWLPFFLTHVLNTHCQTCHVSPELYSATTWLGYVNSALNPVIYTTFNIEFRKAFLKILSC

Row | Structure (SMILES) | Ki [1] [nM] | Ki (D3 receptor) [nM] | Ki (D2 receptor) [nM] | other results
1 | c1cnc(N2CCN(CCNC3=NCc4ccccc43)CC2)nc1 [Compound 1] | 12 | > 100000 | 2380 | –
2 | CN1CCN(C2=Nc3cc(Cl)ccc3Nc3ccccc32)CC1 [clozapine] | – | – | – | incidence of extrapyramidal side effects (EPS) ([2]; versus classical neuroleptics, background statement): lesser incidence of extrapyramidal side effects (EPS) than classical neuroleptics
3 | O=C(CCCN1CCC(O)(c2ccc(Cl)cc2)CC1)c1ccc(F)cc1 [haloperidol] | – | – | – | binding affinity at D2 receptors (D2 receptors): in the subnanomolar range; binding at D1 dopamine receptor (D1 dopamine receptor): binds relatively weakly
4 | CN(CCCc1ccccc1)CCNC1=NCc2ccccc21 [Compound 3, 1-(N-[2-{N'-(3-phenylpropyl)-N'-methyl}aminoethyl])aminoisoindole dioxolate] | 100 | > 100000 | 1940 | –
5 | CCN1CCCC1CNC(=O)c1cc(S(N)(=O)=O)ccc1OC (stereo not shown) [sulpiride] | – | – | – | incidence of extrapyramidal side effects (EPS) ([2]; in vivo): lesser incidence of extrapyramidal side effects (EPS) than classical neuroleptics
6 | c1cnc(N2CCN(CCCNC3=NCc4ccccc43)CC2)nc1 [Compound 2] | 70 | > 100000 | 1420 | –
